Usually IC50 stands for the concentration that inhibits the measured activity by half.

Counter-ions that a name gives are not always drawn.

This test concerns the target T1, α1A-adrenoceptor (Homo sapiens, UniProt P35348).
T1 construct: gene ADRA1A
T1 sequence (P35348 1-466): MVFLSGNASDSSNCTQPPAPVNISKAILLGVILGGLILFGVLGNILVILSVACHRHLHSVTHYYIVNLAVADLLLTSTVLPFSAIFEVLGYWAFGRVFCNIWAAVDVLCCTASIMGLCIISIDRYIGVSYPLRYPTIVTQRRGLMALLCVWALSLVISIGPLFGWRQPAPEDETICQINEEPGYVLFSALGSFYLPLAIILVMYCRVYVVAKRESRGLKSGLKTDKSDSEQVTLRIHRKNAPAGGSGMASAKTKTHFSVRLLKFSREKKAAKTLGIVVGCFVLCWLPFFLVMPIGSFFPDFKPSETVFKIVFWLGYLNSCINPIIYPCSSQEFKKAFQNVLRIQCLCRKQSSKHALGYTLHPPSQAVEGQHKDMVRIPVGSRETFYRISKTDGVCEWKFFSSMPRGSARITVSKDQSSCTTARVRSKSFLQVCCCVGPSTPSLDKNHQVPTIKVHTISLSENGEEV
As to the kind of experiment: aequorin luminescence calcium assay, antagonist mode against phenylephrine, cells stably expressing human α1A-adrenoceptor. It is filed as cell-based.

With `COc1ccccc1N1CCN(CCCOc2c(C)cccc2C)CC1` [MH-76, 1-[3-(2,6-dimethylphenoxy)propyl]-4-(2-methoxyphenyl)piperazine hydrochloride], the IC50 came out at 1.42 nM.

Source of the values: article PMC8157569 (Pharmaceuticals, 2021).
